Assay [1] has as its system Hepatocyte. Briefly: Inhibition of gluconeogenesis in Sprague-Dawley rat hepatocytes assessed as decrease in glucose output at 10 uM after 4 hrs by colorimetric assay relative to control. The format is functional. The following applies: values are per cent of control.
Assay [2] concerns Hepatocyte. Briefly: Inhibition of gluconeogenesis in Sprague-Dawley rat hepatocytes assessed as decrease in glucose output at 20 uM after 4 hrs by colorimetric assay relative to control. The format is functional. The following applies: values are per cent of control.
Assay [3] is described as follows: Inhibition of human recombinant FBPase-mediated fructose-6-phosphate formation by coupled spectrophotometric assay.
The test system of assay [4] is Hepatocyte. Kind of assay: Inhibition of gluconeogenesis in Sprague-Dawley rat hepatocytes assessed as decrease in glucose output at 40 uM after 4 hrs by colorimetric assay relative to control. The class given is functional. Particulars: values are per cent of control.
For assay [5], the system named is Hepatocyte. Briefly: Inhibition of gluconeogenesis in Sprague-Dawley rat hepatocytes assessed as decrease in glucose output at 2 mM after 4 hrs by colorimetric assay relative to control. The format is functional. The following applies: values are per cent of control.
In assay [6] the test system is Hepatocyte. Kind of assay: Inhibition of gluconeogenesis in Sprague-Dawley rat hepatocytes assessed as glucose output at 80 to 160 uM after 4 hrs by colorimetric assay. The class given is functional, cell-based.

The source made the active and inactive calls. No cut-off for these calls is given here.

`COc1ccc(CC(=O)Nc2cccc(-c3nnc(-c4ccc(C)cc4)o3)c2)cc1OC`: the response, % of control at 10 µM in assay [1] is 96.7%. Further, in assay [2], the response, % of control at 20 µM was 93.5%. In addition, the 50% inhibitory concentration (IC50) in assay [3] came to 4.51 µM. Besides, the response, % of control at 40 µM in assay [4] amounted to 103%.

Consider `Cc1ccc(-c2nnc(-c3cccc(NC(=O)CCCN4CCOCC4)c3)o2)cc1`, for which, in assay [3], the IC50 is 4.96 µM.

For the compound `CN(C)C(=N)NC(=N)N` [METFORMIN], in assay [5], the response, % of control at 2000 µM came to 75%.

`Nc1ncnc2c1ncn2[C@@H]1O[C@H](COP(=O)(O)O)[C@@H](O)[C@H]1O` [ADENOSINE PHOSPHATE]: the IC50 in assay [3] worked out at 1.3 µM.

Consider `Cc1ccc(-c2nnc(-c3cccc(NC(=O)CCCCN4CCOCC4)c3)o2)cc1`, for which, in assay [3], the IC50 stood at 5.01 µM.

With `Cc1ccc(-c2nnc(-c3cccc(NC(=O)CCCCCN4CCOCC4)c3)o2)cc1`, in assay [1], the response, % of control at 10 µM stood at 83.3%. In addition, the response, % of control at 20 µM in assay [2] was found to be 83.6%. For the same compound, the IC50 in assay [3] was determined as 2.54 µM. For the same compound, in assay [4], the response, % of control at 40 µM is 85.2%. Also, the inhibition result in assay [6] is “inactive”.

Consider `COc1ccc(CC(=O)Nc2cccc(-c3nnc(-c4cccc(Cl)c4)o3)c2)cc1OC`, for which the half-maximal inhibitory concentration (IC50) in assay [3] is 15.5 µM.

One may read the IC50 as the concentration at which inhibition is half-maximal.

Values taken from ChEMBL document CHEMBL3286289, “Synthesis and structure-activity relationship of non-phosphorus-based fructose-1,6-bisphosphatase inhibitors: 2,5-Diphenyl-1,3,4-oxadiazoles” (Eur J Med Chem, 2014).
